Reference: patent US20070098788A1, “NON-BENZ[…] COMPOSITIONS” (priority 2005, published 2007)

Experiments:
[1] = cited from earlier work
[2] = Particle size distribution by laser light scattering (Malvern); format: physicochemical; settings: zaleplon used in Example 15 capsules; method not stated

Structure (SMILES)	elimination half-life ([1]; in vivo) [h]	onset of action ([1]; usually) [min]	D90 [2] [μm]
Cc1ccc(-c2nc3ccc(C)cn3c2CC(=O)N(C)C)cc1 [Zolpidem, N,N, 6-trimethyl-2-p-tolyl-imidazo[1,2-a]pyridine-3-acetamide]	2 to 3	≤ 15	–
CCN(C(C)=O)c1cccc(-c2ccnc3c(C#N)cnn23)c1 [Zaleplon, N-[3-(3-cyanopyrazolo[1,5-α]pyrimidin-7-yl)phenyl]-N-ethylacetamide]	–	–	195
